Measured values published in patent US10479795B2 (Incyte Corporation, priority 2016, dated 2019).
pIC50: −log10 of the molar value. Structures can show the parent of a compound that is named as a salt.

Tests used:
[1] = biological target: PI3Kγ (p110γ) Recombinant Human Protein (Homo sapiens (Human), UniProt P48736); assay: PI3K-γ Scintillation Proximity Assay; assay type: biochemical; conditions: read-out: PI3Kγ IC50
How it was run: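 Recombinant human p110γ assayed at room temperature in 20 mM MOPS pH 6.7, 10 mM MgCl2, 5 mM DTT, 0.03% CHAPS, 2% DMSO, with 20 μM PIP2 and 2 μM ATP plus [γ-33P]ATP. Product captured on WGA SPA beads overnight and counted; IC50 fitted from % of solvent-control activity versus log inhibitor concentration.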

[2] = biological target: PI3Kδ (p110δ/p85α) Recombinant Human Protein (Homo sapiens (Human), UniProt O00329); assay: PI3Kδ Scintillation Proximity Assay; assay type: biochemical
PI3Kδ (p110δ/p85α) Recombinant Human Protein, sequence (O00329 whole entry): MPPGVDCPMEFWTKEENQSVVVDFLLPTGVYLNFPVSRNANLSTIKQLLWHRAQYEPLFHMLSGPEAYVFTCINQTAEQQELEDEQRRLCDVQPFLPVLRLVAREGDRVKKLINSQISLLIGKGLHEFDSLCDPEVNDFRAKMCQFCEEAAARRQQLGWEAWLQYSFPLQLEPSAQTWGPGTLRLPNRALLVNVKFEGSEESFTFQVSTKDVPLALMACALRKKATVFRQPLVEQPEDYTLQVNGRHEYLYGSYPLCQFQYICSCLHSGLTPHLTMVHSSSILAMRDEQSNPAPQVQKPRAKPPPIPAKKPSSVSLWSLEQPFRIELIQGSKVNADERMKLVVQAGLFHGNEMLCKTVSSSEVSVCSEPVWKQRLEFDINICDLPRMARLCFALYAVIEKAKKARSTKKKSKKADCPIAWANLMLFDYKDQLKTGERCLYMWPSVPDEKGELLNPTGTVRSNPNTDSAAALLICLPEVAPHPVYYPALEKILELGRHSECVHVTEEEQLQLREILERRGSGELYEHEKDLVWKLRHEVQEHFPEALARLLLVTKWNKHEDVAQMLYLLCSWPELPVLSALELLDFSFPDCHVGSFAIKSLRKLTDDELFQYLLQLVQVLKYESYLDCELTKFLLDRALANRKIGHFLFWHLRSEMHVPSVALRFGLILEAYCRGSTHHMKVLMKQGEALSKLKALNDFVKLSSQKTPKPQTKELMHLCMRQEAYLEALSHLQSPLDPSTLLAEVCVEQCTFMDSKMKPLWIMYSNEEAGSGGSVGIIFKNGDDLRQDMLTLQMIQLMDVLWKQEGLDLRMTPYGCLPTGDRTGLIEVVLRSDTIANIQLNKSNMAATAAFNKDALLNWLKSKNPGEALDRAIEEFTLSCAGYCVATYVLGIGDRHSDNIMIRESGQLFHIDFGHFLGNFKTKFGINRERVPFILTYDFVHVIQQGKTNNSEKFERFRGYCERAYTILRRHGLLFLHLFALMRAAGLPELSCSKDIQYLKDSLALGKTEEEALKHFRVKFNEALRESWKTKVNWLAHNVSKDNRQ
PI3Kδ (p110δ/p85α) Recombinant Human Protein, sequence (P27986 whole entry partner): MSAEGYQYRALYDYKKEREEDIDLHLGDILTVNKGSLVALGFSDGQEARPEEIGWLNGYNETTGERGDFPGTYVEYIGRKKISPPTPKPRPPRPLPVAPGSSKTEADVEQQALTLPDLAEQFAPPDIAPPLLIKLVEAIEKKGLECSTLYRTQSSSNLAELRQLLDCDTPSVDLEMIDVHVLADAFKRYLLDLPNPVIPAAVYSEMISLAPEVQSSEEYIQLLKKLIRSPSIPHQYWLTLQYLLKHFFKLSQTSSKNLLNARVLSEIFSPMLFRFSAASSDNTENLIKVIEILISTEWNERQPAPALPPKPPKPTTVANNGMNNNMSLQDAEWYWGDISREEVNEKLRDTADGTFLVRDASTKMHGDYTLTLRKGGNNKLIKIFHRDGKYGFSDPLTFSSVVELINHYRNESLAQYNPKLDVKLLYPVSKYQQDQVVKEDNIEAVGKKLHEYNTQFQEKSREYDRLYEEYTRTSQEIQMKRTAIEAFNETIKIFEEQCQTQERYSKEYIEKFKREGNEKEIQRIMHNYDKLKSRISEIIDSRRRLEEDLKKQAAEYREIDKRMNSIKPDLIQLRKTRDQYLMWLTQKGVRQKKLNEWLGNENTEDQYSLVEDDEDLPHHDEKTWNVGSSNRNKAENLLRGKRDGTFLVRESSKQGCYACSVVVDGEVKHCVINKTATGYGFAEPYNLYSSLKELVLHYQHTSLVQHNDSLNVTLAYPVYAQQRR
How it was run: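 Recombinant human p110δ/p85α (3.4 nM) phosphorylates 20 μM di-octanoyl PIP2 using 2 μM ATP spiked with [γ-33P]ATP, 120 min, room temperature, pH 6.7, 2% DMSO. Product measured by scintillation proximity; IC50 from dose-response fit.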

PI3Kγ (p110γ) Recombinant Human Protein, sequence (P48736 whole entry): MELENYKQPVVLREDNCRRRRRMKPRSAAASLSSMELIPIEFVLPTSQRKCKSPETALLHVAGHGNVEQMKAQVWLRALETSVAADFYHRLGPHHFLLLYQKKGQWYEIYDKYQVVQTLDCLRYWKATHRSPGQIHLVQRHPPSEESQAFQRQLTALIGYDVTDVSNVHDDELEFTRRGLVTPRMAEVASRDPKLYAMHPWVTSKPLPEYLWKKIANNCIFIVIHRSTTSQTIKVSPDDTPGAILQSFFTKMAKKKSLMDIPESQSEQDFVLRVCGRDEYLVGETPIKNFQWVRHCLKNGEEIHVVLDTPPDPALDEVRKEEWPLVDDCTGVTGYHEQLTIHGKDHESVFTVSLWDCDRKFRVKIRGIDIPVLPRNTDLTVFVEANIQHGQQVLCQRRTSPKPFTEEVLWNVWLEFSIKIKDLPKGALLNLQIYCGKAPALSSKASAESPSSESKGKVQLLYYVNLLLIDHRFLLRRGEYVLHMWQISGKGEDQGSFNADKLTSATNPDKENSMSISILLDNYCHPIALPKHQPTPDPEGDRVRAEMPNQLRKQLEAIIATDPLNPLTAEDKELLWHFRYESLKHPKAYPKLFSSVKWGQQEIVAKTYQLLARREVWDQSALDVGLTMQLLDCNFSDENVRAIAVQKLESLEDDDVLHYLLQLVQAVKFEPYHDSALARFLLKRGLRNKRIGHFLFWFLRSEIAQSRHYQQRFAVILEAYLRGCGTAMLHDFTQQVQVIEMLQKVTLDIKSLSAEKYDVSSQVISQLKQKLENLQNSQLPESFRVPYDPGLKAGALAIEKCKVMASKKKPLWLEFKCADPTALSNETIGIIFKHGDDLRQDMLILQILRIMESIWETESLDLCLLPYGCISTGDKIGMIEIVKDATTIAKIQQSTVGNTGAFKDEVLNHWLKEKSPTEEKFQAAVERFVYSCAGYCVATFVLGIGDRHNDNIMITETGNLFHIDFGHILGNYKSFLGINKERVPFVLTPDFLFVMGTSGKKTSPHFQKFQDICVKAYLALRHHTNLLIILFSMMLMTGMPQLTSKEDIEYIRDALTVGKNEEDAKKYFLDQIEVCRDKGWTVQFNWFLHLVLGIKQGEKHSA

Nc1ncnn2c(-c3ccc(F)c(S(=O)(=O)NC45CCC(CO)(C4)C5)c3)cnc12 [Example 366, 5-(4-Aminoimidazo[1,2-f][1,2,4]triazin-7-yl)-2-fluoro-N-(4-(hydroxymethyl)bicyclo[2.1.1]hexan-1-yl)benzenesulfonamide trifluoroacetate salt]
pIC50 [1]: > 7.00 | pIC50 [2]: 6.30 to 7.00

Nc1ncnn2c(-c3cccc(S(=O)(=O)NC45CCC(CO)(C4)C5)c3)cnc12 [Example 368, 3-(4-Aminoimidazo[1,2-f][1,2,4]triazin-7-yl)-N-(4-(hydroxymethyl)bicyclo[2.1.1]hexan-1-yl)benzenesulfonamide trifluoroacetate salt]
pIC50 [1]: > 7.00 | pIC50 [2]: 6.30 to 7.00

Cc1ccc(-c2cnc3c(N)ncnn23)cc1S(=O)(=O)NC12CCC(C#N)(C1)C2 [Example 369, 5-(4-Aminoimidazo[1,2-f][1,2,4]triazin-7-yl)-N-(4-cyanobicyclo[2.1.1]hexan-1-yl)-2-methylbenzenesulfonamide trifluoroacetate salt]
pIC50 [1]: > 7.00 | pIC50 [2]: 6.30 to 7.00

Cc1ccc(S(=O)(=O)N[C@H]2C[C@H](C#N)C2)cc1-c1cnc2c(N)ncnn12 [Example 370, 3-(4-Aminoimidazo[2,1-f][1,2,4]triazin-7-yl)-N-((1r,3r)-3-cyanocyclobutyl)-4-(methyl-d3)benzenesulfonamide trifluoroacetate salt]
pIC50 [1]: > 7.00 | pIC50 [2]: 6.30 to 7.00

COc1ccc(S(=O)(=O)NC23CCC(C#N)(C2)C3)cc1-c1cnc2c(N)ncnn12 [Example 372, 3-(4-Aminoimidazo[1,2-f][1,2,4]triazin-7-yl)-N-(4-cyanobicyclo[2.1.1]hexan-1-yl)-4-methoxybenzenesulfonamide trifluoroacetate salt]
pIC50 [1]: > 7.00 | pIC50 [2]: 5.70 to 6.30

N#CC12CCC(NS(=O)(=O)c3ccc(OC(F)(F)F)c(-c4cnc5c(N)ncnn45)c3)(C1)C2 [Example 373, 3-(4-Aminoimidazo[1,2-f][1,2,4]triazin-7-yl)-N-(4-cyanobicyclo[2.1.1]hexan-1-yl)-4-(trifluoromethoxy)benzenesulfonamide trifluoroacetate salt]
pIC50 [1]: 5.70 to 6.30 | pIC50 [2]: 5.70 to 6.30

Cc1cn2c(-c3ccc(F)c(S(=O)(=O)NC45CC(C#N)(C4)C5)c3)cnc2c(N)n1 [Example 382, 5-(8-Amino-6-methylimidazo[1,2-a]pyrazin-3-yl)-N-(3-cyanobicyclo[1.1.1]pentan-1-yl)-2-fluorobenzenesulfonamide trifluoroacetate salt]
pIC50 [1]: 6.30 to 7.00 | pIC50 [2]: 5.70 to 6.30

N#Cc1ccc(S(=O)(=O)NC23CCC(CO)(C2)C3)cc1-c1cnc2c(N)nc(C(F)(F)F)cn12 [Example 401, 3-(8-Amino-6-(trifluoromethyl)imidazo[1,2-a]pyrazin-3-yl)-4-cyano-N-(4-(hydroxymethyl)bicyclo[2.1.1]hexan-1-yl)benzenesulfonamide trifluoroacetate salt]
pIC50 [1]: > 7.00 | pIC50 [2]: < 5.70

CC(C)(O)CNS(=O)(=O)c1ccc(C(F)(F)F)c(-c2cnc3c(N)nc(C(F)(F)F)cn23)c1 [Example 407, 3-(8-amino-6-(trifluoromethyl)imidazo[1,2-a]pyrazin-3-yl)-N-(2-hydroxy-2-methylpropyl)-4-(trifluoromethyl)benzenesulfonamide]
pIC50 [1]: 5.70 to 6.30 | pIC50 [2]: < 5.70

CCN(CC)CCCCNC(=O)c1cn2c(-c3cc(S(C)(=O)=O)ccc3C)cnc2c(N)n1 [Example 452, 8-Amino-N-(4-(diethylamino)butyl)-3-(2-methyl-5-(methylsulfonyl)phenyl)imidazo[1,2-a]pyrazine-6-carboxamide trifluoroacetate salt]
pIC50 [1]: < 5.70 | pIC50 [2]: 6.30 to 7.00

Cc1ccc(S(C)(=O)=O)cc1-c1cnc2c(N)nc(C(=O)NCCc3cnn(C)c3)cn12 [Example 453, 8-amino-N-(2-(1-methyl-1H-pyrazol-4-yl)ethyl)-3-(2-methyl-5-(methylsulfonyl)phenyl)imidazo[1,2-a]pyrazine-6-carboxamide trifluoroacetate salt]
pIC50 [1]: 6.30 to 7.00 | pIC50 [2]: 6.30 to 7.00

Cc1ccc(S(C)(=O)=O)cc1-c1cnc2c(N)nc(C(=O)Nc3cc(-c4ccco4)[nH]n3)cn12 [Example 454, 8-amino-N-(5-(furan-2-yl)-1H-pyrazol-3-yl)-3-(2-methyl-5-(methylsulfonyl)phenyl)imidazo[1,2-a]pyrazine-6-carboxamide trifluoroacetate salt]
pIC50 [1]: 6.30 to 7.00 | pIC50 [2]: 5.70 to 6.30

Cc1ccc(S(C)(=O)=O)cc1-c1cnc2c(N)nc(C(=O)Nc3ccc(N4CCN(C)CC4)cn3)cn12 [Example 455, 8-amino-3-(2-methyl-5-(methylsulfonyl)phenyl)-N-(5-(4-methylpiperazin-1-yl)pyridin-2-yl)imidazo[1,2-a]pyrazine-6-carboxamide trifluoroacetate salt]
pIC50 [1]: 5.70 to 6.30 | pIC50 [2]: 5.70 to 6.30

Cc1ccc(S(C)(=O)=O)cc1-c1cnc2c(N)nc(C(=O)NCCCn3cccn3)cn12 [Example 457, N-(3-(1H-pyrazol-1-yl)propyl)-8-amino-3-(2-methyl-5-(methylsulfonyl)phenyl)imidazo[1,2-a]pyrazine-6-carboxamide trifluoroacetate salt]
pIC50 [1]: 6.30 to 7.00 | pIC50 [2]: 6.30 to 7.00

COCCN1CCCC(NC(=O)c2cn3c(-c4cc(S(C)(=O)=O)ccc4C)cnc3c(N)n2)C1 (stereo not drawn) [Example 458, 8-Amino-N-(1-(2-methoxyethyl)piperidin-3-yl)-3-(2-methyl-5-(methylsulfonyl)phenyl)imidazo[1,2-a]pyrazine-6-carboxamide trifluoroacetate salt]
pIC50 [1]: 5.70 to 6.30 | pIC50 [2]: < 5.70

Cc1ccc(S(C)(=O)=O)cc1-c1cnc2c(N)nc(C(=O)NC3CCCN(CC#N)C3)cn12 (stereo not drawn) [Example 459, 8-Amino-N-(1-(cyanomethyl)piperidin-3-yl)-3-(2-methyl-5-(methylsulfonyl)phenyl)imidazo[1,2-a]pyrazine-6-carboxamide trifluoroacetate salt]
pIC50 [1]: 6.30 to 7.00 | pIC50 [2]: < 5.70

COC(=O)N1CCCC(NC(=O)c2cn3c(-c4cc(S(C)(=O)=O)ccc4C)cnc3c(N)n2)C1 (stereo not drawn) [Example 461, Methyl 3-(8-amino-3-(2-methyl-5-(methylsulfonyl)phenyl)imidazo[1,2-a]pyrazine-6-carboxamido)piperidine-1-carboxylate trifluoroacetate salt]
pIC50 [1]: 6.30 to 7.00 | pIC50 [2]: 5.70 to 6.30

Cc1ccc(S(C)(=O)=O)cc1-c1cnc2c(N)nc(C(=O)NC3CCCN(S(C)(=O)=O)C3)cn12 (stereo not drawn) [Example 462, 8-Amino-3-(2-methyl-5-(methylsulfonyl)phenyl)-N-(1-(methylsulfonyl)piperidin-3-yl)imidazo[1,2-a]pyrazine-6-carboxamide trifluoroacetate salt]
pIC50 [1]: > 7.00 | pIC50 [2]: 5.70 to 6.30

Cc1c(F)cc(S(=O)(=O)NCC(C)(C)O)cc1-c1cnc2c(N)nc(CO)nn12 [Example 470, 3-(4-Amino-2-(hydroxymethyl)imidazo[2,1-f][1,2,4]triazin-7-yl)-5-fluoro-N-(2-hydroxy-2-methylpropyl)-4-methylbenzenesulfonamide]
pIC50 [1]: > 7.00 | pIC50 [2]: 5.70 to 6.30

Cc1cnccc1-c1cn2c(-c3cc(S(C)(=O)=O)ccc3C)cnc2c(N)n1 [Example 473, 3-(2-Methyl-5-(methylsulfonyl)phenyl)-6-(3-methylpyridin-4-yl)imidazo[1,2-a]pyrazin-8-amine trifluoroacetate]
pIC50 [1]: > 7.00 | pIC50 [2]: 5.70 to 6.30

COc1cccc(F)c1-c1cn2c(-c3cc(S(C)(=O)=O)ccc3C)cnc2c(N)n1 [Example 478, 6-(2-Fluoro-6-methoxyphenyl)-3-(2-methyl-5-(methylsulfonyl)phenyl)imidazo[1,2-a]pyrazin-8-amine trifluoroacetate]
pIC50 [1]: 6.30 to 7.00 | pIC50 [2]: 5.70 to 6.30

Cc1ccc(S(C)(=O)=O)cc1-c1cnc2c(N)nc(-c3ccnn3C)cn12 [Example 479, 6-(1-Methyl-1H-pyrazol-5-yl)-3-(2-methyl-5-(methylsulfonyl)phenyl)imidazo[1,2-a]pyrazin-8-amine trifluoroacetate]
pIC50 [1]: > 7.00 | pIC50 [2]: 6.30 to 7.00

Cc1ccc(S(C)(=O)=O)cc1-c1cnc2c(N)nc(-c3ccc(C(=O)N(C)C)cc3F)cn12 [Example 480, 4-(8-Amino-3-(2-methyl-5-(methylsulfonyl)phenyl)imidazo[1,2-a]pyrazin-6-yl)-3-fluoro-N,N-dimethylbenzamide]
pIC50 [1]: > 7.00 | pIC50 [2]: 6.30 to 7.00

Cc1ccc(S(C)(=O)=O)cc1-c1cnc2c(N)nc(-c3ccc(CN4CCCC4)cc3F)cn12 [Example 487, 6-(2-Fluoro-4-(pyrrolidin-1-ylmethyl)phenyl)-3-(2-methyl-5-(methylsulfonyl)phenyl)imidazo[1,2-a]pyrazin-8-amine]
pIC50 [1]: > 7.00 | pIC50 [2]: 6.30 to 7.00

Cc1ccc(S(=O)(=O)C[C@H]2CC[C@@H](O)CC2)cc1-c1cnc2c(N)ncnn12 [Example 498, cis-4-(((3-(4-Aminoimidazo[2,1-f][1,2,4]triazin-7-yl)-4-methylphenyl)sulfonyl)methyl)cyclohexan-1-ol]
pIC50 [1]: > 7.00 | pIC50 [2]: 5.70 to 6.30

Cc1ccc(S(=O)(=O)CC2CC2)cc1-c1cnc2c(N)ncnn12 [Example 499, 7-(5-((Cyclopropylmethyl)sulfonyl)-2-methylphenyl)imidazo[2,1-f][1,2,4]triazin-4-amine]
pIC50 [1]: 6.30 to 7.00 | pIC50 [2]: 5.70 to 6.30

COC[C@H]1CCCN1C(=O)C1CCCN(S(=O)(=O)c2ccc(C)c(-c3cnc4c(N)nc(C(F)(F)F)cn34)c2)C1 (stereo partly drawn) [Example 511, (1-((3-(8-Amino-6-(trifluoromethyl)imidazo[1,2-a]pyrazin-3-yl)-4-methylphenyl)sulfonyl)piperidin-3-yl)((R)-2-(methoxymethyl)pyrrolidin-1-yl)methanone]
pIC50 [1]: 5.70 to 6.30 | pIC50 [2]: < 5.70
